Experimental data taken from US5654427A, “Indolocarbazole derivatives to treat a pathological condition of the prostate” (Kyowa Hakko Kogyo Co., Ltd., priority 1995, dated 1997).

Key:
Assay type in all cases: cell-based
[1] = test system: PC-3; assay: growth inhibition of PC-3 prostate cancer cells (calcein fluorescence); details: Homo sapiens, PC-3, 72 h; 3 days incubation; read-out: PC-3 IC50
Experimental: (§1) Throughout the experiment the Tsu-Pr1 and Du-Pro1 cells were maintained in RPMI 1640 medium (GIBCO) containing 10% fetal bovine serum (Hyclone), 2 mM glutamine, 100 U/ml penicillin, and 100 μg/ml streptomycin. The PC-3 cells were maintained in Ham's F12K medium (Irvine Scientific) containing 10% fetal bovine serum (Hyclone), 2 mM glutamine, 100 U/ml penicillin, and 100 μg/ml streptomycin. All cell lines were maintained at 37° C. in a humidified atmosphere containing 5% CO2. The DU-145 cells were maintained in minimal essential medium (Gibco), containing 10% fetal bovine serum (Hyclone), 2 mM glutamine, and no antibiotics.
(§2) Tests for growth inhibition by the candidate compounds were conducted by the following procedure. In each well of a 96-well plate (Falcon) were placed 2,500 cells in 0.1 ml of medium. The cultures were incubated overnight after which a 0.1 ml aliquot of culture medium was added to each well. […] Other control wells received medium without any K-252a derivative compounds. Incubation was continued for three days. On day three the number of cells in each well was measured using a calcein fluorescence assay (Bozyczko-Coyne et al. J. Neurosci. Meth. 50, 205-216 (1993)).
(§3) Calcein AM (Molecular Probes, Eugene, Oreg.), an analog of the viable dye fluorescein diacetate, is taken up by cells and cleaved intracellularly to fluorescent salts that are retained by intact membranes of viable cells. This method thus provides a reliable and quantitative measurement of cell survival. Calcein AM was diluted 2× in Dulbeccos phosphate buffered saline (D-PBS) to 2× the final assay concentration (6 μM) and 100 μl was added to culture wells containing 100 μl of medium. The plates were then incubated for 1 hour at 37° C. Cells were then washed 4 times with D-PBS to remove excess calcein not taken up by cells. The plate was read using a Millipore plate reading fluorimeter (Cytofluor 2350) at emission=485 nm and excitation=538 nm. After subtraction of blank values (wells containing medium but no cells), relative fluorescent values reflect a quantitative measurement of cell survival. […]

[2] = test system: androgen independent human prostate cancer cell lines Tsu-Pr1, DuPro-1, PC-3 and DU-145; assay: growth inhibition of prostate cancer-derived cell lines, overall (calcein fluorescence); details: Table 3
Experimental: as §1, §2, §3

[3] = test system: DU-145; assay: growth inhibition of DU-145 prostate cancer cells (calcein fluorescence); details: Homo sapiens, DU-145, 72 h; 3 days incubation; read-out: DU-145 C50
Experimental: as §1, §2
Calcein AM (Molecular Probes, Eugene, Oreg.), an analog of the viable dye fluorescein diacetate, is taken up by cells and cleaved intracellularly to fluorescent salts that are retained by intact membranes of viable cells. This method thus provides a reliable and quantitative measurement of cell survival. Calcein AM was diluted 2× in Dulbeccos phosphate buffered saline (D-PBS) to 2× the final assay concentration (6 μM) and 100 μl was added to culture wells containing 100 μl of medium. The plates were then incubated for 1 hour at 37° C. Cells were then washed 4 times with D-PBS to remove excess calcein not taken up by cells. The plate was read using a Millipore plate reading fluorimeter (Cytofluor 2350) at emission=485 nm and excitation=538 nm. After subtraction of blank values (wells containing medium but no cells), relative fluorescent values reflect a quantitative measurement of cell survival.
The number of cells in the wells containing functional derivatives was compared to the number of cells in the control wells. The concentration which inhibited cell growth by 50% was calculated and is referred to as the "IC50 ".

COC1(CO)CC2OC1(C)n1c3ccccc3c3c4c(c5c6ccccc6n2c5c31)C(=O)NC4 (stereo not drawn) [Compound I-19]
IC50 [1]: 5000 nM
potency in inhibiting prostate cell line growth, in words [2]: most potent compounds in inhibiting growth in all four cell lines
IC50 [3]: 110 nM
